The subject of assay [1] is Cryptococcus neoformans. Briefly: Antifungal activity against Cryptococcus neoformans ZKCC 2209 assessed as fungal growth inhibition measured after 72 hrs by double dilution method. In kind it is functional.
For assay [2], the system named is Candida tropicalis. Briefly: Antifungal activity against Candida tropicalis ATCC 1369 assessed as fungal growth inhibition measured after 72 hrs by double dilution method. Type of assay: functional.
The subject of assay [3] is Pichia kudriavzevii. The assay is described as follows: Antifungal activity against Candida krusei ATCC 6258 assessed as fungal growth inhibition measured after 72 hrs by double dilution method. In kind it is functional.
Assay [4] concerns Candida albicans. The assay is described as follows: Antifungal activity against Candida albicans ATCC SC5314 assessed as fungal growth inhibition measured after 72 hrs by double dilution method. Type of assay: functional.
In assay [5] the test system is Aspergillus fumigatus. Briefly: Antifungal activity against Aspergillus fumigatus KM8001 assessed as fungal growth inhibition measured after 72 hrs by double dilution method. Type of assay: functional.
Assay [6] relates to Candida albicans. The assay is described as follows: Antifungal activity against Candida albicans ATCC SC5314 assessed as induction of ROS production by measuring fluorescence intensity incubated for 12 hrs by KGT010-1 staining based fluorescence microscopy. In kind it is functional, organism-based.
The subject of assay [7] is Candida albicans. Briefly: Antifungal activity against fluconazole- resistant Candida albicans 17# assessed as fungal growth inhibition measured after 72 hrs by double dilution method. In kind it is functional.
Assay [8] has as its system Candida albicans. Briefly: Antifungal activity against fluconazole -resistant Candida albicans 904 assessed as fungal growth inhibition measured after 72 hrs by double dilution method. Type of assay: functional.
The subject of assay [9] is Candida albicans. Briefly: Antifungal activity against fluconazole -resistant Candida albicans CaR assessed as fungal growth inhibition measured after 72 hrs by double dilution method. In kind it is functional.
For assay [10], the system named is Candida albicans. The assay is described as follows: Antifungal activity against fluconazole -resistant Candida albicans 901 assessed as fungal growth inhibition measured after 72 hrs by double dilution method. Type of assay: functional.
Assay [11] has as its system Candida albicans. The assay is described as follows: Antifungal activity against fluconazole -resistant Candida albicans 632 assessed as fungal growth inhibition measured after 72 hrs by double dilution method. Type of assay: functional.

In brackets after ≈: the same amount, converted by molar mass. Activity calls are given as the source filed them. The calls are words filed in the database; no cut-off is given here.

As to `C[C@H](C(=O)N[C@H](Cn1ccnc1)C(=O)NC1CCCCC1)c1ccc(-c2ccccc2)c(F)c1`, the MIC50 in assay [1] was 4 µg/mL (≈ 8.65 µM); in [2], 1 µg/mL (≈ 2.16 µM); in assay [3], 2 µg/mL (≈ 4.32 µM); in assay [4], 2 µg/mL (≈ 4.32 µM); in assay [5], over 8 µg/mL.

Turning to `COc1ccc2cc([C@H](C)C(=O)N[C@H](Cn3cncn3)C(=O)OC(C)C)ccc2c1`, the MIC50 stood at 0.5 µg/mL (≈ 1.22 µM) in assay [1]; 0.5 µg/mL (≈ 1.22 µM) in [2]; 1 µg/mL (≈ 2.44 µM) in assay [3]; 0.25 µg/mL (≈ 0.609 µM) in [4]; 4 µg/mL (≈ 9.74 µM) in assay [5].

For the compound `COc1ccc2cc([C@H](C)C(=O)NC(Cn3ccnc3)C(=O)c3ccccc3)ccc2c1` (stereo partly specified), the MIC50 is 0.5 µg/mL (≈ 1.17 µM) in [1]; 0.5 µg/mL (≈ 1.17 µM) in assay [2]; 0.5 µg/mL (≈ 1.17 µM) in assay [3]; 0.25 µg/mL (≈ 0.585 µM) in assay [4]; 2 µg/mL (≈ 4.68 µM) in [5].

For the compound `C[C@H](C(=O)NC(Cn1cncn1)C(=O)c1ccccc1)c1cccc(C(=O)c2ccccc2)c1` (stereo partly specified), the MIC50 in assay [1] was found to be 0.5 µg/mL (≈ 1.1 µM); in assay [2], 0.5 µg/mL (≈ 1.1 µM); in assay [3] it was 1 µg/mL (≈ 2.21 µM); in [4] it was 5 µg/mL (≈ 11 µM); in assay [5], 4 µg/mL (≈ 8.84 µM).

Take `COc1ccc2cc([C@H](C)C(=O)N[C@H](Cn3ccnc3)C(=O)NC(C)C)ccc2c1`: the MIC50 in assay [1] is 0.5 µg/mL (≈ 1.22 µM); in assay [2] it was 1 µg/mL (≈ 2.45 µM); in assay [3] it was 0.25 µg/mL (≈ 0.612 µM); in assay [4], 0.25 µg/mL (≈ 0.612 µM); in assay [5], 4 µg/mL (≈ 9.79 µM).

Turning to `CC(C)OC(=O)[C@@H](Cn1ccnc1)NC(=O)[C@@H](C)c1ccc(-c2ccccc2)c(F)c1`, the MIC50 in [1] is 0.25 µg/mL (≈ 0.59 µM); in assay [2] it was 1 µg/mL (≈ 2.36 µM); in assay [3], 3 µg/mL (≈ 7.08 µM); in [4] it was 0.5 µg/mL (≈ 1.18 µM); in assay [5], over 8 µg/mL.

As for `CC(C)OC(=O)[C@@H](Cn1cncn1)NC(=O)[C@@H](C)c1ccc(-c2ccccc2)c(F)c1`, the MIC50 is 1 µg/mL (≈ 2.36 µM) in [1]; 0.5 µg/mL (≈ 1.18 µM) in assay [2]; 2 µg/mL (≈ 4.71 µM) in [3]; 1 µg/mL (≈ 2.36 µM) in assay [4]; over 8 µg/mL in assay [5].

Turning to `CC(C)NC(=O)[C@@H](Cn1ccnc1)NC(=O)[C@@H](C)c1ccc(-c2ccccc2)c(F)c1`, the MIC50 in [1] was 0.5 µg/mL (≈ 1.18 µM); in assay [2], 2 µg/mL (≈ 4.73 µM); in [3] it was 1 µg/mL (≈ 2.37 µM); in [4], 0.5 µg/mL (≈ 1.18 µM); in assay [5], over 8 µg/mL.

Take `C[C@H](C(=O)NC(Cn1cncn1)C(=O)c1ccccc1)c1ccc(-c2ccccc2)c(F)c1` (stereo partly specified): the MIC50 in assay [1] worked out at 0.5 µg/mL (≈ 1.13 µM); in assay [2], 0.25 µg/mL (≈ 0.565 µM); in assay [3], 1 µg/mL (≈ 2.26 µM); in [4], 0.5 µg/mL (≈ 1.13 µM); in [5], 2 µg/mL (≈ 4.52 µM).

Regarding `COc1ccc2cc([C@H](C)C(=O)N[C@H](Cn3ccnc3)C(=O)NC3CCCCC3)ccc2c1`, the MIC50 in assay [1] worked out at 1 µg/mL (≈ 2.23 µM); in assay [2], 0.5 µg/mL (≈ 1.11 µM); in assay [3], 0.5 µg/mL (≈ 1.11 µM); in [4], 1 µg/mL (≈ 2.23 µM); in assay [5], 4 µg/mL (≈ 8.92 µM). Moreover, the result in assay [6] was Active.

Turning to `COC(=O)[C@@H](Cn1ccnc1)NC(=O)[C@@H](C)c1cccc(C(=O)c2ccccc2)c1`, the MIC50 in assay [1] was found to be 1 µg/mL (≈ 2.47 µM); in assay [2] it was 0.5 µg/mL (≈ 1.23 µM); in assay [3], 2 µg/mL (≈ 4.93 µM); in [4], 1 µg/mL (≈ 2.47 µM); in [5], 4 µg/mL (≈ 9.87 µM).

On to `COC(=O)[C@@H](Cn1ccnc1)NC(=O)[C@@H](C)c1ccc2cc(OC)ccc2c1`, for which the MIC50 is 0.58 µg/mL (≈ 1.52 µM) in assay [1]; 1 µg/mL (≈ 2.62 µM) in assay [2]; 1 µg/mL (≈ 2.62 µM) in assay [3]; 0.25 µg/mL (≈ 0.655 µM) in assay [4]; over 8 µg/mL in assay [5].

For the compound `C[C@H](C(=O)NC(Cn1ccnc1)C(=O)c1ccccc1)c1ccc(-c2ccccc2)c(F)c1` (stereo partly specified), the MIC50 in assay [1] is 0.5 µg/mL (≈ 1.13 µM); in [2] it was 0.5 µg/mL (≈ 1.13 µM); in [3], 0.25 µg/mL (≈ 0.566 µM); in assay [4], 0.5 µg/mL (≈ 1.13 µM); in assay [5], over 8 µg/mL.

In the case of `COC(=O)[C@@H](Cn1ccnc1)NC(=O)[C@@H](C)c1ccc(-c2ccccc2)c(F)c1`, the MIC50 in assay [1] was 0.5 µg/mL (≈ 1.26 µM); in assay [2] it was 2 µg/mL (≈ 5.06 µM); in assay [3], 0.5 µg/mL (≈ 1.26 µM); in assay [4] it was 1 µg/mL (≈ 2.53 µM); in assay [5] it was over 8 µg/mL.

Take `C[C@H](C(=O)NC(Cn1ccnc1)C(=O)c1ccccc1)c1cccc(C(=O)c2ccccc2)c1` (stereo partly specified): the MIC50 in assay [1] stood at 1 µg/mL (≈ 2.21 µM); in [2] it was 0.5 µg/mL (≈ 1.11 µM); in [3], 0.5 µg/mL (≈ 1.11 µM); in [4] it was 1 µg/mL (≈ 2.21 µM); in [5], 4 µg/mL (≈ 8.86 µM).

On to `COc1ccc2cc([C@H](C)C(=O)N[C@H](Cn3ccnc3)C(=O)OC(C)C)ccc2c1`, for which the MIC50 in assay [1] is 0.5 µg/mL (≈ 1.22 µM); in [2], 1 µg/mL (≈ 2.44 µM); in [3], 0.25 µg/mL (≈ 0.611 µM); in assay [4] it was 0.5 µg/mL (≈ 1.22 µM); in assay [5] it was 4 µg/mL (≈ 9.77 µM).

On to `C[C@H](C(=O)N[C@H](Cn1ccnc1)C(=O)NC1CCCCC1)c1cccc(C(=O)c2ccccc2)c1`, for which the MIC50 in assay [1] is 0.5 µg/mL (≈ 1.06 µM); in [2], 2 µg/mL (≈ 4.23 µM); in assay [3], 1 µg/mL (≈ 2.12 µM); in assay [4], 1 µg/mL (≈ 2.12 µM); in assay [5], over 8 µg/mL.

Take `COC(=O)[C@@H](Cn1cncn1)NC(=O)[C@@H](C)c1ccc2cc(OC)ccc2c1`: the MIC50 in [1] is 0.25 µg/mL (≈ 0.654 µM); in assay [2] it was 0.25 µg/mL (≈ 0.654 µM); in assay [3], 1 µg/mL (≈ 2.61 µM); in [4], 0.25 µg/mL (≈ 0.654 µM); in assay [5], 4 µg/mL (≈ 10.5 µM).

On to `CC(C)OC(=O)[C@@H](Cn1ccnc1)NC(=O)[C@@H](C)c1cccc(C(=O)c2ccccc2)c1`, for which the MIC50 is 1 µg/mL (≈ 2.31 µM) in [1]; 2 µg/mL (≈ 4.61 µM) in assay [2]; 0.5 µg/mL (≈ 1.15 µM) in [3]; 1 µg/mL (≈ 2.31 µM) in [4]; over 8 µg/mL in [5].

As to `CC(=O)N1CCN(c2ccc(OCC3COC(Cn4ccnc4)(c4ccc(Cl)cc4Cl)O3)cc2)CC1` (stereo unspecified) [KETOCONAZOLE], the MIC50 in assay [7] is 4 µg/mL (≈ 7.53 µM); in [8], over 8 µg/mL; in assay [1], 1 µg/mL (≈ 1.88 µM); in [2], 0.5 µg/mL (≈ 0.941 µM); in [9] it was 4 µg/mL (≈ 7.53 µM); in [3], 0.5 µg/mL (≈ 0.941 µM). Moreover, the MIC50 in [10] was 4 µg/mL (≈ 7.53 µM); in assay [4], 0.5 µg/mL (≈ 0.941 µM); in assay [5], over 8 µg/mL; in assay [11], over 8 µg/mL.

As to `COC(=O)[C@@H](Cn1cncn1)NC(=O)[C@@H](C)c1ccc(-c2ccccc2)c(F)c1`, the MIC50 in assay [1] was determined as 2 µg/mL (≈ 5.05 µM); in assay [2], 2 µg/mL (≈ 5.05 µM); in [3] it was 1 µg/mL (≈ 2.52 µM); in assay [4] it was 0.5 µg/mL (≈ 1.26 µM); in assay [5], 4 µg/mL (≈ 10.1 µM).

As a reminder, the MIC50 is an inhibitory concentration at the 50% level, which refers to growth in some studies and to a panel of isolates in others.
